The subject of the data set is i.p. implanted L1210 leukemia. Nature of the data set: Comparison of conjugates and ara-C plus steroid combinations, i.p. implanted L1210 leukemic mice. The data set is classed as in vivo. As to the method: Each mouse received 1×10^6 cells intraperitoneally. Doses were administered i.p. once daily to groups of 8 mice (avg. wt. 20 g) for 5 consecutive days beginning 24 hours after tumor implantation. In case of the combination, ara-C and the steroid were given at the same molar concentrations present in the conjugates. Mean survival days were calculated by the equation appearing in the NCI protocol; T/C ratios are reported in percent, i.e (treated/control)×100.

The structures appear in SMILES notation.

Regarding `C[C@]12C=CC(=O)C=C1CC[C@@H]1[C@@H]2[C@@H](O)C[C@@]2(C)[C@H]1CC[C@]2(O)C(=O)CO[P+]([O-])(O)OC[C@H]1O[C@@H](n2ccc(N)nc2=O)[C@@H](O)[C@@H]1O` (stereo partly drawn) [Pred-p-ara-C (I), 5'-(Prednisolone-21-phosphoryl)-1-β-D-arabinofuranosylcytosine], for the setting “75.0 μmole/kg/day × 5”, the “Survival Days Mean (Treated)” value was found to be 19.13 days. Moreover, the “Weight change on Day 8 (g/mouse)” value (75.0 μmole/kg/day × 5 (each, for combinations)) was -0.28 g/mouse. Moreover, the T/C – broadly, the result in the treated group divided by that in the control group, in per cent – (114.7 μmol/kg/day) turned out to be 178%. Further, the response vs control in vivo at 75 µmol/kg (Mus musculus, L1210, ip, 75.0 μmole/kg/day × 5, read-out: % T/C) was 201%.
Take `C[C@]12C=CC(=O)C=C1CC[C@@H]1[C@@H]2C(=O)C[C@@]2(C)[C@H]1CC[C@]2(O)C(=O)CO[P+]([O-])(O)OC[C@H]1O[C@@H](n2ccc(N)nc2=O)[C@@H](O)[C@@H]1O` (stereo partly drawn) [Prednisone-p-ara-C (II), 5'-(Prednisone-21-phosphoryl)-1-β-D-arabinofuranosylcytosine]: under “75.4 μmole/kg/day × 5”, the “Survival Days Mean (Treated)” value was determined as 18.13 days and the “Weight change on Day 8 (g/mouse)” value is -0.30 g/mouse. Also, the response vs control in vivo at 75.4 µmol/kg (Mus musculus, L1210, ip, 75.4 μmole/kg/day × 5, read-out: % T/C) came out at 210%.

The values are drawn from US4283394A, “Cytotoxic nucleoside-corticosteroid phosphodiesters” (priority 1979, dated 1981).
